Data on 5 substances can be found in patent publication US6153405A, “Lantibiotic mutants and chimeras of enhanced stability and activity, leader sequences therefor, genes encoding the same, and methods of producing and using the same” (The University of Maryland, priority 1998, dated 2000).

Read-outs that look alike come from different tables or passages of the source. *1 amine or outer side, *2 acyl side, *3 side chain or, on linkers, in order; H or OH if unused. Where no end group is shown, it is not given here. Suc = O=C(CCC(=O)[*:2])[*:1]

For series [1], the system named is Bacillus cereus spores and/or vegetative cells. The settings on record: cited from earlier work.
Series [2] concerns B. cereus T spores. As to the kind of experiment: inhibition zone (halo) assay. The series is classed as cell-based, Bacillus cereus. As to conditions: HPLC fractions spotted on agar, sprayed with B. cereus T spores. The protocol: Biological activity was measured using an inhibition zone (halo) assay (ref. 21 and U.S. application Ser. No. 07/981,525 now U.S. Pat. No. 5,516,682) and a liquid culture assay (26). HPLC fractions were tested for activity by spotting 15 μL onto an agar plate (modified Medium A), incubating at 37° C. for 15 min., spraying with B. cereus T spores and incubating at 37° C. for 16 hr. Positive inhibition is defined as and was determined by a clear zone containing spores that were inhibited during outgrowth surrounded by an opaque lawn of cells derived from the spores that had become vegetative.

Series [3] concerns B. cereus T spores. As to the kind of experiment: liquid culture assay of spore outgrowth. The series is classed as cell-based, Bacillus cereus. The settings on record: for inhibition of spore outgrowth (inhibitory concentration): B. cereus T spores, 90 min incubation. As to the method: In the liquid culture assay, various concentrations of peptide were added to a suspension of B. cereus T spores in modified medium A and incubated in a rotating drum shaker at 30° C. for 90 min. The inhibitory effects were evaluated using phase contrast microscopy and a Klett-Summerson calorimeter. After incubation, cells were viewed by phase-contrast microscopy to determine their stage of outgrowth. Those cells in early stages of outgrowth (phase-dark and swollen, but only slightly elongated) were considered inhibited. Those cells that were fully elongated and/or divided were considered to be not inhibited. The inhibitory concentration is the concentration of peptide which arrests a majority of the population of spores at the stage of early outgrowth after the 90-min incubation period. Further, spore germination and outgrowth are accompanied by known changes in the optical density at 650 nm. Thus, the stage of outgrowth can be monitored and the inhibitory concentration can be confirmed using a Klett-Summerson calorimeter. Definitive determinations of the inhibitory concentration of peptide advantageously employ both phase-contrast microscopy and measurement of the optical density at 650 nm.

Series [4] relates to B. cereus vegetative cells. As to the kind of experiment: liquid assay of vegetative cells (lysis by turbidity). The series is classed as cell-based, Bacillus cereus. The settings on record: for inhibition of vegetative cells (inhibitory concentration): amount of peptide required to reduce turbidity by 50%. The protocol:
The activity of the chimeric Nis1-11 -Sub12-32 peptide towards inhibiting B. cereus vegetative cells was also determined. Heat-shocked B. cereus T spores (150 micrograms) were added to 1% tryptone (Difco)-0.1 M Tris-phosphate buffer (2 ml) at pH 6.8. The mixture was incubated for 2 hours at 37° C. in a rotating drum shaker, whereupon all of the spores were in the vegetative state. The chimeric peptide was then added, and incubation was continued for one additional hour. Cell lysis was monitored by turbity (measured in Klett units), and the integrity of the cell was determined by phase-contrast microscopy. Relative inhibitory effectiveness was measured as the amount of inhibitory peptide required to reduce the turbity by 50%.

A short description of series [5]: stability of dehydro residues in aqueous solution by 1H NMR. The series is classed as physicochemical. The settings on record: D2O, pH 6.0, dark, room temperature. The protocol: Samples for ^1 H NMR spectral analysis were dissolved in deuterated water (99.96 atom % D, Aldrich Chemical Co.), lyophilized (repeated twice) to exchange protons and dissolved in D2 O to a final concentration of 2-3 mg/mL. ^1 H NMR spectra were obtained using a Bruker AMX-500 spectrometer interfaced to an Aspect 3000 computer. Spectra were obtained at a constant temperature of 295 K, using selective solvent suppression. Data were processed using UXNMR software. Mass spectral analysis was performed by PeptidoGenic Research & Co. (Livermore, Calif.) on a Sciex API I Electrospray Mass Spectrometer which has an analysis range of over 200,000 Da with +/-0.01% accuracy, on 5 μL samples at a concentration of about 5 pmol/μL. The reported masses are those calculated as the most probable values based on the different m/z forms.
A 3 mg amount of the Nis1-11 -Sub12-32 chimera (consisting of a mixture of the Early Peak and Late Peak as defined in FIGS. 4 and 5) was dissolved in D2 O at a pH of 6.0, placed in an NMR tube (which was then closed), and incubated in aqueous solution in the dark at room temperature for 2.5 months.

The mark [6] stands for this setting: inferred through nisin from previous measurements (21, 26, 31).

Turning to “NL --Nis1-34: complete nisin prepeptide: nisin leader region and nisin structural region (MSTKDFNLDLVSVSKKDSGASPRITSISLCTPGCKTGALMGCNMKTATCHCSIHVSK; full-length; UniProt P13068 1-57, looked up)”, the “Secreted peptide is active” value in series [1] (prepeptide expressed in L. lactis 11454, ref. c (17)) is listed as “yes”.
Take “Nis1-11 -Sub12-32: chimeric lantibiotic: nisin residues 1-11 and subtilin residues 12-32 (SEQ ID NO:5), processed by B. subtilis 168”: the “antimicrobial activity in halo assay” value in series [2] is “possessed antimicrobial activity”. For the same substance, the “antimicrobial activity in halo assay” value in series [2] (listed as Early Peak) is given as “antimicrobial activity is associated mainly with the Early Peak”. Moreover, in series [3], the “activity against spore outgrowth” value is given as “active” and the “inhibition of spore outgrowth (inhibitory concentration)” value is on record as “about 0.2 μg/ml”. Also, in series [3] (setting [6]), the “activity relative to E4I-subtilin (fold more active)” value is given as “about 2 fold” and the “activity relative to natural subtilin (times more active)” value is 6-8 times. In series [4], the “activity against vegetative growth” value is given as “active” and the “inhibition of vegetative cells (inhibitory concentration)” value is on record as “about 2 μg/ml”. For the same substance, the “change in the NMR resonances of the dehydro residues” value in series [5] (72-day incubation, mixture of Early Peak and Late Peak) was “no significant change”. Also, the “half-life of the Dha5 residue” value in series [5] (NMR at 0, 34 and 72 days) is on record as “so long that it cannot be estimated from the 72-day time-point”.
Turning to “SL --S1-32: prepeptide: subtilin leader sequence and subtilin structural region (MSKFDDFDLDVVKVSKQDSKITPQWKSESLCTPGCVTGALQTCFLQTLTCNCKISK; full-length; UniProt P10946 1-56, looked up)”, the “Secreted peptide is active” value in series [1] (prepeptide expressed in B. subtilis 168, ref. b (21)) is listed as “yes”; in series [1] (prepeptide expressed in B. subtilis 6633), “yes”.
On to nisin [reference compound], for which, in series [3], the “inhibition of spore outgrowth (inhibitory concentration)” value is “about 0.2 μg/ml”. Besides, the “inhibition of vegetative cells (inhibitory concentration)” value in series [4] is recorded as “about 2 μg/ml”.
For the substance “succinylated subtilin: subtilin succinylated at its N-terminus, accumulates in late stationary phase of B. subtilis 6633 (Suc-WKSESLCTPGCVTGALQTCFLQTLTCNCKISK; cysteine pairing not given here; also: lantibiotic (post-translational modifications not placed); UniProt P10946 25-56, looked up)”, in series [1] (succinylated at N-terminus), the “activity compared with normal unsuccinylated subtilin” value is listed as “significantly less active”.
